Results from US9150530B2, “Esters of 4, 9-dihydroxy-naphtho [2, 3-b] furans for disease therapies” (Zhoushan Haizhongzhou Xinsheng Pharmaceuticals Co., Ltd., priority 2011, dated 2015).

Legend:
SW480 = experiment: Cell viability determination (MTT), SW480; assay type: cell-based; details: Homo sapiens, SW480, colorectal cancer, 48 hour incubation, read-out: Drug concentrations for 50% cell viability (IC50)
Excerpt: (§1) Cell Culture: A549, DLD1, SW480, LOVO, HT-29, Hela, U-20S, MES-SA, SK-MEL-28, Panc-1, DU-145, CNE, U251, Eca-109, MGC80-3, QGY-7701, BEL-7404, PLC/PRF/5, Huh-7, and SGC-7901 cells were maintained in Dulbecco's Modified Eagle Medium (DMEM) (imported from Invitrogen, Carlsbad, Calif., USA) supplemented with 10% fetal bovine serum (FBS) (Si Ji Qing, Hangzhou, China) and 1% penicillin/streptomycin/amphotericin B (imported from Invitrogen, Carlsbad, Calif., USA).
(§2) Cell Viability Determination: Popular MTT method (Archives of Biochemistry and Biophysics, 1993, 303: 474-482) was used to screen the in vitro effects of the invented drugs. Briefly, 5000 to 10000 cells were inoculated per well in a 96-well plate. After overnight incubation, drug was added to the wells at final concentration of 10 μM, […], 2.5 μM, 1.25 μM, or 1 μM, 0.75 μM, 0.5 μM and 0.25 μM in complete culture medium. Each dose level covered 4 equivalent wells. After 48 hour incubation, one tenth volume of 5 mg/mL MTT (thiazolyl blue tetrazolium bromide, Sigma-Aldrich) stock solution was added, and incubation was continued for 2 hours. Then medium was removed and 100 μL of isopropanol solution comprising 86% isopropanol, 4% aqueous 1 N HCl and 10% aqueous SDS solution (10% in concentration) was added. The absorbance of each well at 570 nm wavelength was measured by a micro-plate reader after gentle shaking for 20 minutes. Drug concentrations of 50% cell viability (IC50) were calculated by LOGIT method.

MES-SA = experiment: Cell viability determination (MTT), MES-SA; assay type: cell-based; details: Homo sapiens, leiomyosarcoma, 48 hour incubation, read-out: Drug concentrations for 50% cell viability (IC50)
Excerpt: as §1, §2

[1] = Human plasma incubation, HPLC analysis of degradation products; assay type: in vitro ADME; details: 20 μM in human plasma, 37° C., 2 hours
Experimental: The compounds of formula I were incubated in human plasma at 37° C. for 2 hours, and then the mixtures were treated with acetonitrile to remove protein and the resulting supernatants were analyzed by HPLC (FIG. 2). […] Without wishing to be bound by a particular theory, it is believed that, although not detected due to instability in a protein-free environment, the direct hydrolysis product of a compound of formula I, 4,9-dihydroxy-naphtho[2,3-b]furan, and its partially oxidized product semihydroquinone (shown in scheme 6) co-exist in vivo and play important biological roles.
HPLC column: Waters Sunfire C18, 250×4.60 mm 5 micron; Mobile phase: buffer A, 90% 5 mM potassium phosphate buffer, pH 6.8, 10% acetonitrile; buffer B, 15% 5 mM potassium phosphate buffer, pH 6.8, 85% acetonitrile; Detector: Waters 2998 Photodiode Array Detector.
Gradient B: 0-3 min, 50% buffer B, 3-5 min, 50%-100% buffer B, 5-18 min, 100% buffer B, 18-22 min, 100%-50% buffer B, 22-25 min, […]; flow rate, 1 ml/min. Analysis of the 4,9-dihydroxy-naphtho[2,3-b]furan compounds (FIG. 1)
10 mM of a compound of formula I or its analog in DMSO (however, compound VI was in DMF) was diluted with human plasma to 20 μM, and the resulting mixtures were incubated at 37° C. for 2 hours. To plasma sample, 9 times volume of acetonitrile was added. The resulting mixtures were vortexed and incubated in dry ice for 30 minutes or in −20° C. freezer for 3 hours, then centrifuged, and supernatant was used for HPLC analysis using gradient B.

Question: Which IC50 (SW480) does the source give for `CC(=O)Oc1c2ccccc2c(OC(=O)CNC(=O)OC(C)(C)C)c2oc(C(C)=O)cc12` [compound IV, 2-acetyl-4-acetoxy-9-[(tert-butoxycarbonyl)amino]acetoxy-naphtho[2,3-b]furan] here?
Answer: 910 nM

Question: And the IC50 (MES-SA)?
Answer: 420 nM

Question: What about the “Degradation / detectable products after incubation in human plasma” value [1] of the same molecule?
Answer: the detectable products were compound XIII and partially degraded products
